Test results taken from ChEMBL document CHEMBL4364338, “Probing the side chain tolerance for inhibitors of the CD95/PLCγ1 interaction” (Bioorg Med Chem Lett, 2019).
Calls of active or inactive are those of the source. The rule behind the calls is not given here.

How the values were obtained:
Homo sapiens [1] = species: Homo sapiens; assay: Selectivity index, ratio of IC50 for CD95 (unknown origin)/FADD (unknown origin) protein-protein interaction transfected in HEK293T cells to IC50 for CD95 (unknown origin)/PLCgamma-1 SH3 domain (unknown origin) protein-protein interaction transfected in HEK293T cells; assay type: cell-based
[2] = Inhibition of CD95 (unknown origin)/FADD (unknown origin) protein-protein interaction transfected in HEK293T cells incubated for 1 hr by renilla luciferase based protein-fragment complementation assay; assay type: cell-based, Homo sapiens
[3] = Inhibition of CD95 (unknown origin)/PLCgamma-1 SH3 domain (unknown origin) protein-protein interaction transfected in HEK293T cells incubated for 1 hr by renilla luciferase based protein-fragment complementation assay; assay type: cell-based, Homo sapiens
Homo sapiens [4] = species: Homo sapiens; assay: Inhibition of CD95 (unknown origin)/PLCgamma-1 SH3 domain D808A mutant (unknown origin) protein-protein interaction transfected in HEK293T cells incubated for 1 hr by renilla luciferase based protein-fragment complementation assay; assay type: cell-based
Homo sapiens [5] = species: Homo sapiens; assay: Inhibition of CD95 (unknown origin)/PLCgamma-1 SH3 domain Q805A mutant (unknown origin) protein-protein interaction transfected in HEK293T cells incubated for 1 hr by renilla luciferase based protein-fragment complementation assay; assay type: cell-based

Compound | Ratio IC50 (Homo sapiens [1]) | IC50 [2] [µM] | IC50 [3] [µM] | inhibition (Homo sapiens [4]) | inhibition (Homo sapiens [5])
H-TCRKHRK-OH | > 100 | > 5000 | 35 | – | –
N=C(N)NCCC[C@@H](C(=O)NCCN(C(=O)CCCCCN)[C@@H](Cc1c[nH]cn1)C(=O)NCCN(C(=O)CCCCCC(N)=O)[C@@H](CCCCN)C(N)=O)N(CCN)C(=O)CCS | – | > 5000 | > 5000 | – | –
N=C(N)NCCCCC(=O)N(CCNC(=O)[C@H](Cc1c[nH]cn1)N(CCNC(=O)[C@H](CCCNC(=N)N)N(CCN)C(=O)CCS)C(=O)CCCCCN)[C@@H](CCCCN)C(N)=O | 50 | 3800 | 75 | – | –
N=C(N)NCCC[C@@H](C(=O)NCCN(C(=O)CCCCCN)[C@@H](Cc1c[nH]cn1)C(=O)NCCN(C(=O)CCc1c[nH]c2ccccc12)[C@@H](CCCCN)C(N)=O)N(CCN)C(=O)CCS | 8 | 2650 | 343 | – | –
N=C(N)NCCCCC(=O)N(CCNC(=O)[C@H](Cc1c[nH]cn1)N(CCNC(=O)[C@H](Cc1cccnc1)N(CCN)C(=O)CCS)C(=O)CCCCCN)[C@@H](CCCCN)C(N)=O | 4 | 4250 | 907 | – | –
N=C(N)NCCC[C@@H](C(=O)NCCN(C(=O)CCCCCN)[C@@H](Cc1c[nH]cn1)C(=O)NCCN(C(=O)CCc1ccc(N)cc1)[C@@H](CCCCN)C(N)=O)N(CCN)C(=O)CCS | > 10 | > 5000 | 856 | – | –
CCC(=O)N(CCN)[C@@H](CCCNC(=N)N)C(=O)NCCN(C(=O)CCCCCN)[C@@H](Cc1c[nH]cn1)C(=O)NCCN(C(=O)CCCCNC(=N)N)[C@@H](CCCCN)C(N)=O | > 100 | > 5000 | 61 | – | –
N=C(N)NCCCCC(=O)N(CCNC(=O)[C@H](Cc1c[nH]cn1)N(CCNC(=O)[C@H](CCCNC(=N)N)N(CCN)C(=O)CCO)C(=O)CCCCCN)[C@@H](CCCCN)C(N)=O | 50 | 3930 | 79 | – | –
C[C@@H](O)[C@H](N)C(=O)NCCN(C(=O)CCS)[C@@H](CCCNC(=N)N)C(=O)NCCN(C(=O)CCCCCN)[C@@H](Cc1c[nH]cn1)C(=O)NCCN(C(=O)CCCCNC(=N)N)[C@@H](CCCCN)C(N)=O | > 100 | > 5000 | 77 | inactive | inactive
N=C(N)NCCC[C@@H](C(=O)NCCN(C(=O)CCCCCN)[C@@H](Cc1c[nH]cn1)C(=O)NCCN(C(=O)CCc1ccc(O)cc1)[C@@H](CCCCN)C(N)=O)N(CCN)C(=O)CCS | > 10 | > 5000 | 655 | – | –
N=C(N)NCCCCC(=O)N(CCNC(=O)[C@H](Cc1c[nH]cn1)N(CCNC(=O)[C@H](Cc1c[nH]c2ccccc12)N(CCN)C(=O)CCS)C(=O)CCCCCN)[C@@H](CCCCN)C(N)=O | 2 | 173 | 85 | – | –
